Assay results taken from patent US20080207527A1, “Bicyclic Compounds Which Inhibit Beta-Secretase Activity and Methods of Use Thereof” (CoMentis, Inc., priority 2004, published 2008).

What was measured:
memapsin 2 = memapsin 2 (Homo sapiens, UniProt P56817); assay: Inhibition of memapsin 2 beta-secretase activity toward fluorogenic substrate FS-2; format: biochemical; conditions: pH 4, 37° C., 20 minutes pre-incubation, read-out: M2 Ki
Description: Potency of compounds were determined by measurement of their inhibition of memapsin 2 activity toward a fluorescent substrate. […] Briefly, assays were performed at pH 4, 37° C., by pre-incubation of memapsin 2 enzyme with compound for 20 minutes. Activity measure was initiated by addition of a fluorogenic substrate FS-2 (Bachem Americas, Torrance, Calif.). Fluorescent signal increase over time was measured as a rate of hydrolysis of the peptide substrate.

Cathepsin D = Cathepsin D (Homo sapiens, UniProt P07339); assay: Inhibition of cathepsin D activity (substrate peptide hydrolysis, MALDI-TOF); format: biochemical; conditions: pH 4.1, 37 degrees C., read-out: Cath D Ki
Cathepsin D, sequence (P07339 65-412, species assumed): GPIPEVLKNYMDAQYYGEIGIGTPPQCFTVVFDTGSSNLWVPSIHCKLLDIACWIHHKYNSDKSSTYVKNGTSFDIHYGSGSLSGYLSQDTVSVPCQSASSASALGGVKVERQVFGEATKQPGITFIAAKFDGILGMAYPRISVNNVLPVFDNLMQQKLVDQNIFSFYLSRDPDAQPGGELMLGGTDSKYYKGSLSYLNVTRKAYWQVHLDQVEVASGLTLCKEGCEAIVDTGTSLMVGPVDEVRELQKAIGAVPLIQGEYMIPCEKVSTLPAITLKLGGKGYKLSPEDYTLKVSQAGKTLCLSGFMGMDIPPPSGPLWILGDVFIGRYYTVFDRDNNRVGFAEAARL

memapsin 1 = molecular target: T1, memapsin 1 (Homo sapiens, UniProt Q9Y5Z0); assay: Inhibition of memapsin 1 beta-secretase activity (substrate peptide hydrolysis, MALDI-TOF); format: biochemical; conditions: pH 4.1, 37 degrees C., read-out: M1 Ki
T1 sequence (Q9Y5Z0 63-518): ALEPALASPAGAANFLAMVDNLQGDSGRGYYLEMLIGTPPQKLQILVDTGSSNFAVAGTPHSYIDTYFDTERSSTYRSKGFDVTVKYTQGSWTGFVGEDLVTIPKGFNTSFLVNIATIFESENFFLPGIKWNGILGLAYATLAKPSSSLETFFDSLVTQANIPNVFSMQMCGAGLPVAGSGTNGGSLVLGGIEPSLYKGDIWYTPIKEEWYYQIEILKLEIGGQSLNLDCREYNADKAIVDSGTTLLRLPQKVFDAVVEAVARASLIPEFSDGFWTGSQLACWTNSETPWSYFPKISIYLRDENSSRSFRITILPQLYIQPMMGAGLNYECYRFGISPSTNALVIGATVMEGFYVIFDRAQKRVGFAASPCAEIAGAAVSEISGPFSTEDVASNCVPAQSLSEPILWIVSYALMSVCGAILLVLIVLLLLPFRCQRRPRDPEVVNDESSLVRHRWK

Aβ production = assay: Cellular Aβ IC50 determination (Aβ40 sandwich ELISA); format: cell-based; conditions: Cricetulus griseus, Chinese hamster ovary cells over-expressing human APP695 with London and Swedish mutations, 24 h
Description: The potency of compounds against memapsin 2 activity was determined in a cellular assay of Aβ production. […] Chinese hamster ovary cells that over-express human APP695 with the London and Swedish mutations were seeded in multi-well plates at 10% confluency. Compounds were dissolved in DMSO to concentrations near 1 mM, and diluted into culture media to a final concentration near 4 μM (final 0.4% DMSO). Compounds were diluted serially and applied to cells in multi-well plates 48 h after seeding. Incubation was continued in 5% CO2 at 37 degrees C. for 24 h. Aliquots were removed and assayed for Aβ40 content using a sandwich ELISA (BioSource International). Amount of Aβ40 over the range of concentration of compounds, relative to control incubations, were fit to a 4-parameter IC50 model.

memapsin 2, sequence (P56817 46-501): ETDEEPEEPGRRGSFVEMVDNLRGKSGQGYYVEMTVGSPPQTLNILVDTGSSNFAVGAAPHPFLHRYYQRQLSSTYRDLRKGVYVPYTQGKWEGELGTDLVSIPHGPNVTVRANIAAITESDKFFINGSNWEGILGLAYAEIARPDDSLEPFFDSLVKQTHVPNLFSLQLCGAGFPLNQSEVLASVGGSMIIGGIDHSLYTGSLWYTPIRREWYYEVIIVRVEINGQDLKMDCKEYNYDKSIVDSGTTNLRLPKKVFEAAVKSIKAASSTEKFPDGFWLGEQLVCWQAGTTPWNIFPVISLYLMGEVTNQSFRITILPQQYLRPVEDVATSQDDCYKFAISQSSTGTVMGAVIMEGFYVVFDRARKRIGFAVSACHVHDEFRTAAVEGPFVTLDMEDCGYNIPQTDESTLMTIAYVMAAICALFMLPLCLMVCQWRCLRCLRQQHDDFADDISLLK

## CCCN(CCC)C(=O)c1cccc(C(=O)N[C@@H](CC(C)C)[C@@H](O)C[C@@H](C)C(=O)NC(C(=O)NCC(C)C)C(C)C)c1 (stereo in doubt) [N1-(5-hydroxy-8-(1-(isobutylamino)-3-methyl-1-oxobutan-2-ylamino)-2,7-dimethyl-8-oxooctan-4-yl)-N3,N3-dipropylisophthalamide]
Memapsin 2
  Ki: < 405 nM
Cathepsin D
  Ki: < 405 nM
Memapsin 1
  Ki: < 405 nM

## Cc1nc(C(C)NC(=O)c2cc(C(=O)NC(CC(C)C)C(O)CC(C)C(=O)NC(C(=O)NC(C)C)C(C)C)cc(N(C)S(C)(=O)=O)c2)c(C)o1 (stereo not shown) [N1-(1-(2,5-dimethyloxazol-4-yl)ethyl)-N3-(5-hydroxy-8-(1-(isopropylamino)-3-methyl-1-oxobutan-2-ylamino)-2,7-dimethyl-8-oxooctan-4-yl)-5-(N-methylmethylsulfonamido)isophthalamide]
Memapsin 2
  Ki: < 405 nM
Cathepsin D
  Ki: 405 to 2000 nM
Aβ production
  IC50: 10000 to 20000 nM

## COc1ccc(C[C@H](NC(=O)c2cccc(C(=O)NCc3nc(C)cs3)c2)[C@@H](O)C[C@@H](C)C(=O)N[C@H](C(=O)NCC(C)C)C(C)C)cc1 [N1-(3-hydroxy-6-(1-(isobutylamino)-3-methyl-1-oxobutan-2-ylamino)-1-(4-methoxyphenyl)-5-methyl-6-oxohexan-2-yl)-N3-((4-methylthiazol-2-yl)methyl)isophthalamide]
Memapsin 2
  Ki: 2000 to 5000 nM
Cathepsin D
  Ki: < 405 nM
Memapsin 1
  Ki: 405 to 2000 nM

## CC(C)CNC(=O)C(NC(=O)C(C)CC(O)C(CC(C)C)NC(=O)c1cccc(C(=O)N(C)Cc2nccn2C)c1)C(C)C (stereo not shown) [N1-(5-hydroxy-8-(1-(isobutylamino)-3-methyl-1-oxobutan-2-ylamino)-2,7-dimethyl-8-oxooctan-4-yl)-N3-methyl-N3-((1-methyl-1H-imidazol-2-yl)methyl)isophthalamide]
Memapsin 2
  Ki: > 5000 nM
Cathepsin D
  Ki: 2000 to 5000 nM
Memapsin 1
  Ki: > 5000 nM

## Cc1nc(CN(C)C(=O)c2cccc(C(=O)NC(CC(C)C)C(O)CC(C)C(=O)NC(C(=O)NCC(C)C)C(C)C)c2)co1 (stereo not shown) [N1-(5-hydroxy-8-(1-(isobutylamino)-3-methyl-1-oxobutan-2-ylamino)-2,7-dimethyl-8-oxooctan-4-yl)-N3-methyl-N3-((2-methyloxazol-4-yl)methyl)isophthalamide]
Memapsin 2
  Ki: < 405 nM
Aβ production
  IC50: > 20000 nM

## Cc1ccc(CN(C)C(=O)c2cccc(C(=O)NC(CC(C)C)C(O)CC(C)C(=O)NC(C(=O)NCC(C)C)C(C)C)c2)o1 (stereo not shown) [N1-(5-hydroxy-8-(1-(isobutylamino)-3-methyl-1-oxobutan-2-ylamino)-2,7-dimethyl-8-oxooctan-4-yl)-N3-methyl-N3-((5-methylfuran-2-yl)methyl)isophthalamide]
Memapsin 2
  Ki: < 405 nM
Aβ production
  IC50: > 20000 nM

## CCCNC(=O)c1cc(C(=O)NC(CC(C)C)C(O)CC(C)C(=O)NC(C(=O)NC(C)C)C(C)C)cc(N(C)S(C)(=O)=O)c1 (stereo not shown) [N1-(5-hydroxy-8-(1-(isopropylamino)-3-methyl-1-oxobutan-2-ylamino)-2,7-dimethyl-8-oxooctan-4-yl)-5-(N-methylmethylsulfonamido)-N3-propylisophthalamide]
Memapsin 2
  Ki: < 405 nM
Cathepsin D
  Ki: 405 to 2000 nM
Aβ production
  IC50: < 5000 nM

## CC(C)CC(NC(=O)c1cc(C(=O)NC(C)c2ccccc2)cc(N(C)S(C)(=O)=O)c1)C(O)CC(C)C(=O)NC(C)C (stereo not shown) [N1-(5-hydroxy-8-(isopropylamino)-2,7-dimethyl-8-oxooctan-4-yl)-5-(N-methylmethylsulfonamido)-N3-(1-phenylethyl)isophthalamide]
Memapsin 2
  Ki: 405 to 2000 nM
Memapsin 1
  Ki: 405 to 2000 nM
Aβ production
  IC50: > 20000 nM

## CC(C)CC(NC(=O)c1cc(C(=O)NC(C)c2ccccc2)cc(N(C)S(C)(=O)=O)c1)C(O)CC(N)C(=O)NC(C(=O)NC(C)C)C(C)C (stereo not shown) [N1-(7-amino-5-hydroxy-8-(1-(isopropylamino)-3-methyl-1-oxobutan-2-ylamino)-2-methyl-8-oxooctan-4-yl)-5-(N-methylmethylsulfonamido)-N3-(1-phenylethyl)isophthalamide]
Memapsin 2
  Ki: < 405 nM
Aβ production
  IC50: > 20000 nM

## CC(C)CC(NC(=O)c1cc(C(=O)NC(C)c2ccccc2)cc(N(C)S(C)(=O)=O)c1)C(O)CC(N=[N+]=[N-])C(=O)NC(C(=O)NC(C)C)C(C)C (stereo not shown) [N1-(7-azido-5-hydroxy-8-(1-(isopropylamino)-3-methyl-1-oxobutan-2-ylamino)-2-methyl-8-oxooctan-4-yl)-5-(N-methylmethylsulfonamido)-N3-(1-phenylethyl)isophthalamide]
Memapsin 2
  Ki: < 405 nM
Aβ production
  IC50: < 5000 nM

## Cc1nc(CNC(=O)c2cc(C(=O)NC(CC(C)C)C(O)CC(C)C(=O)NC(C(=O)NC(C)C)C(C)C)cc(N(C)S(C)(=O)=O)c2)c(C)o1 (stereo not shown) [N1-((2,5-dimethyloxazol-4-yl)methyl)-N3-(5-hydroxy-8-(1-(isopropylamino)-3-methyl-1-oxobutan-2-ylamino)-2,7-dimethyl-8-oxooctan-4-yl)-5-(N-methylmethylsulfonamido)isophthalamide]
Memapsin 2
  Ki: < 405 nM
Cathepsin D
  Ki: < 405 nM
Aβ production
  IC50: < 5000 nM

## CC(C)CNC(=O)C(NC(=O)C(C)CC(O)C(CC(C)C)NC(=O)c1cccc(C(=O)N(C)Cc2ccccc2)c1)C(C)C (stereo not shown) [N1-benzyl-N3-(5-hydroxy-8-(1-(isobutylamino)-3-methyl-1-oxobutan-2-ylamino)-2,7-dimethyl-8-oxooctan-4-yl)-N1-methylisophthalamide]
Memapsin 2
  Ki: < 405 nM
Aβ production
  IC50: > 20000 nM

## CC(C)CNC(=O)C(NC(=O)C(C)CC(O)C(CC(C)C)NC(=O)c1cc(C(=O)NC2CCCC2)cc(N(C)S(C)(=O)=O)c1)C(C)C (stereo not shown) [N1-cyclopentyl-N3-(5-hydroxy-8-(1-(isobutylamino)-3-methyl-1-oxobutan-2-ylamino)-2,7-dimethyl-8-oxooctan-4-yl)-5-(N-methylmethylsulfonamido)isophthalamide]
Memapsin 2
  Ki: < 405 nM
Aβ production
  IC50: < 5000 nM

## CCN(Cc1nc(C)cs1)C(=O)c1cccc(C(=O)NC(CC(C)C)C(O)CC(C)C(=O)NC(C(=O)NCC(C)C)C(C)C)c1 (stereo not shown) [N1-ethyl-N3-(5-hydroxy-8-(1-(isobutylamino)-3-methyl-1-oxobutan-2-ylamino)-2,7-dimethyl-8-oxooctan-4-yl)-N1-((4-methylthiazol-2-yl)methyl)isophthalamide]
Memapsin 2
  Ki: < 405 nM
Aβ production
  IC50: < 5000 nM

## Cc1csc(CNC(=O)c2cccc(C(=O)N[C@@H](CC(C)C)[C@@H](O)C[C@@H](C)C(=O)N[C@H](C(=O)NCC(C)C)C(C)C)n2)n1 [N2-(5-hydroxy-8-(1-(isobutylamino)-3-methyl-1-oxobutan-2-ylamino)-2,7-dimethyl-8-oxooctan-4-yl)-N6-((4-methylthiazol-2-yl)methyl)pyridine-2,6-dicarboxamide]
Memapsin 2
  Ki: 2000 to 5000 nM
Cathepsin D
  Ki: > 5000 nM
Aβ production
  IC50: > 20000 nM

## Cc1csc(CN(C)C(=O)c2cccc(C(=O)NC(CC(C)C)C(O)CC(C)C(=O)NC(C(=O)NCC(C)C)C(C)C)n2)n1 (stereo not shown) [N2-(5-hydroxy-8-(1-(isobutylamino)-3-methyl-1-oxobutan-2-ylamino)-2,7-dimethyl-8-oxooctan-4-yl)-N6-methyl-N6-((4-methylthiazol-2-yl)methyl)pyridine-2,6-dicarboxamide]
Memapsin 2
  Ki: < 405 nM
Aβ production
  IC50: > 20000 nM

## Cc1csc(CN(C)C(=O)c2cncc(C(=O)NC(CC(C)C)C(O)CC(C)C(=O)NC(C(=O)NCC(C)C)C(C)C)c2)n1 (stereo not shown) [N3-(5-hydroxy-8-(1-(isobutylamino)-3-methyl-1-oxobutan-2-ylamino)-2,7-dimethyl-8-oxooctan-4-yl)-N5-methyl-N5-((4-methylthiazol-2-yl)methyl)pyridine-3,5-dicarboxamide]
Memapsin 2
  Ki: < 405 nM
Aβ production
  IC50: 5000 to 10000 nM

## CC(C)CNC(=O)C(NC(=O)C(C)CC(O)C(CC(C)C)NC(=O)c1cncc(C(=O)N(C)Cc2cccnc2)c1)C(C)C (stereo not shown) [N3-(5-hydroxy-8-(1-(isobutylamino)-3-methyl-1-oxobutan-2-ylamino)-2,7-dimethyl-8-oxooctan-4-yl)-N5-methyl-N5-(pyridin-3-ylmethyl)pyridine-3,5-dicarboxamide]
Memapsin 2
  Ki: 405 to 2000 nM
Aβ production
  IC50: > 20000 nM

## CC(C)CNC(=O)C(NC(=O)C(C)CC(O)C(CC(C)C)NC(=O)c1cc(C(=O)NC(C)c2ccccc2)cc(N(C)C(=O)OC2CCOC2)c1)C(C)C (stereo not shown) [tetrahydrofuran-3-yl 3-(5-hydroxy-8-(1-(isobutylamino)-3-methyl-1-oxobutan-2-ylamino)-2,7-dimethyl-8-oxooctan-4-ylcarbamoyl)-5-(1-phenylethylcarbamoyl)phenyl(methyl)carbamate]
Memapsin 2
  Ki: 405 to 2000 nM
Aβ production
  IC50: > 20000 nM
